These results are taken from US10010539B2, “Pyrazole, triazole and tetrazole orexin receptor antagonists” (MERCK SHARP & DOHME CORP., priority 2014, dated 2018).

For one test, the target named is human orexin-2 receptor (Homo sapiens (Human), UniProt O43614). Description: FLIPR Ca2+ Flux Assay, orexin-2 receptor (hOX2R FLIPR). In kind it is cell-based. Particulars: CHO cells expressing the human orexin-2 receptor; agonist 70 pM Ala-6,12 human orexin-A. On the procedure:
(§1) The utility of the compounds in accordance with the present invention as orexin receptor OX1R and/or OX2R antagonists may be readily determined without undue experimentation by methodology well known in the art, including the “FLIPR Ca^2+ Flux Assay” (Okumura et al., Biochem. Biophys. Res. Comm. 280:976-981, 2001). In a typical experiment the OX1 and OX2 receptor antagonistic activity of the compounds of the present invention was determined in accordance with the following experimental method. For intracellular calcium measurements, Chinese hamster ovary (CHO) cells expressing the rat orexin-1 receptor or the human orexin-2 receptor, are grown in Iscove's modified DMEM containing 2 mM L-glutamine, […], 1% hypoxanthine-thymidine supplement, 100 U/ml penicillin, 100 μg/ml streptomycin and 10% heat-inactivated fetal calf serum (FCS). The cells are seeded at 20,000 cells/well into Becton-Dickinson black 384-well clear bottom sterile plates coated with poly-D-lysine. All reagents were from GIBCO-Invitrogen Corp. The seeded plates are incubated overnight at 37° C. and 5% CO2. Ala-6,12 human orexin-A as the agonist is prepared as a 1 mM stock solution in 1% bovine serum albumin (BSA) and diluted in assay buffer (HBSS containing 20 mM HEPES, 0.1% BSA and 2.5 mM probenecid, pH7.4) for use in the assay at a final concentration of 70 pM. Test compounds are prepared as 10 mM stock solution in DMSO, then diluted in 384-well plates, first in DMSO, then assay buffer. On the day of the assay, cells are washed 3 times with 100 μl assay buffer and then incubated for 60 min (37° C., 5% CO2) in 60 μl assay buffer containing 1 μM Fluo-4AM ester, 0.02% pluronic acid, and 1% BSA. The dye loading solution is then aspirated and cells are washed 3 times with 100 μl assay buffer. 30 μl of that same buffer is left in each well. Within the Fluorescent Imaging Plate Reader (FLIPR, Molecular Devices), test compounds are added to the plate in a volume of 25 μl, incubated for 5 min and finally 25 μl of agonist is added. Fluorescence is measured for each well at 1 second intervals for 5 minutes and the height of each fluorescence peak is compared to the height of the fluorescence peak induced by 70 pM Ala-6,12 orexin-A with buffer in place of antagonist. For each antagonist, IC50 value (the concentration of compound needed to inhibit 50% of the agonist response) is determined. Alternatively, compound potency can be assessed by a radioligand binding assay (described in Bergman et. al. Bioorg. Med. Chem. Lett. 2008, 18, 1425-1430) in which the inhibition constant (Ki) is determined in membranes prepared from CHO cells expressing either the OX1 or OX2 receptor. The intrinsic orexin receptor antagonist activity of a compound which may be used in the present invention may be determined by these assays.
Background: A change in cytosolic calcium serves as a functional read-out for many receptors and channels.

Test [1] addresses hOXIR (orexin-1 receptor) (Homo sapiens, UniProt O43613). Description: FLIPR Ca2+ Flux Assay, orexin-1 receptor (hOXIR FLIPR). In kind it is cell-based. The following applies: CHO cells expressing the orexin-1 receptor (method text: rat; table head: hOXIR); agonist 70 pM Ala-6,12 human orexin-A. The method, then: as §1

Some results are limits rather than exact numbers.

Broadly, the IC50 is the concentration needed to halve the response being measured.

human orexin-2 receptor, sequence (O43614 whole entry): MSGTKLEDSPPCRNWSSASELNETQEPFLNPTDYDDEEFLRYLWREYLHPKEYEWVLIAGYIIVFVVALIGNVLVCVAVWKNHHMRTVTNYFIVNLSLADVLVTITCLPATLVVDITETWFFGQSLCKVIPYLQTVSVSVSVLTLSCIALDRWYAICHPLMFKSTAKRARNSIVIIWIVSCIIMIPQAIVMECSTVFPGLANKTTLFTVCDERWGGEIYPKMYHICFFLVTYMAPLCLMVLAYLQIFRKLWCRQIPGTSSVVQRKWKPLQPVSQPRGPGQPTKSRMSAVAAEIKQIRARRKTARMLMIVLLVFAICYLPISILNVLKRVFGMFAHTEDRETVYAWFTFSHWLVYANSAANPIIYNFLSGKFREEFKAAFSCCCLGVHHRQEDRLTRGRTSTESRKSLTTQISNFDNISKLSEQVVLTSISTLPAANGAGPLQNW

Consider `Cc1nc(-c2ccccc2C(=O)N2C[C@H](n3ncc(C(C)(C)O)n3)CC[C@H]2C)no1` [Example 47, 2-{2-[(3R,6R)-6-methyl-1-{[2-(5-methyl-1,2,4-oxadiazol-3-yl)phenyl]carbonyl}piperidin-3-yl]-2H-1,2,3-triazol-4-yl}propan-2-ol], for which the IC50 was 45.7 nM at human orexin-2 receptor and more than 10 µM in test [1].

Consider `Cc1noc(-c2c(F)cccc2C(=O)N2C[C@H](n3ncc(C(C)(C)O)n3)CC[C@H]2C)n1` [Example 48, 2-{2-[(3R,6R)-1-{[3-fluoro-2-(3-methyl-1,2,4-oxadiazol-5-yl)phenyl]carbonyl}-6-methylpiperidin-3-yl]-2H-1,2,3-triazol-4-yl}propan-2-ol], for which the values for the IC50 (at human orexin-2 receptor; in test [1]) were 136 nM and more than 10 µM, respectively.

As for `C[C@@H]1CC[C@@H](n2ncc(C(C)(C)O)n2)CN1C(=O)c1ccccc1N1CCCC1` [Example 49, 2-(2-{(3R,6R)-6-methyl-1-[(2-pyrrolidin-1-ylphenyl)carbonyl]piperidin-3-yl}-2H-1,2,3-triazol-4-yl)propan-2-ol], the 50% inhibitory concentration (IC50) on human orexin-2 receptor came to 29.1 nM; in test [1] it was 2.83 µM.

Take `C[C@@H]1CC[C@@H](n2ncc(C(C)(C)O)n2)CN1C(=O)c1cccc(Oc2ccccc2)c1` [Example 50, 2-(2-{(3R,6R)-6-methyl-1-[(3-phenoxyphenyl)carbonyl]piperidin-3-yl}-2H-1,2,3-triazol-4-yl)propan-2-ol]: the IC50 on human orexin-2 receptor is 126 nM; in test [1], more than 10 µM.

On to `COc1cccc(-n2nccn2)c1C(=O)N1C[C@H](n2ncc(C(C)(C)O)n2)CC[C@H]1C` [Example 51, 2-{2-[(3R,6R)-1-{[2-methoxy-6-(2H-1,2,3-triazol-2-yl)phenyl]carbonyl}-6-methylpiperidin-3-yl]-2H-1,2,3-triazol-4-yl}propan-2-ol], for which the IC50 at human orexin-2 receptor is 67.4 nM; in test [1] it was more than 10 µM.

Consider `Cc1ccc(-n2nccn2)c(C(=O)N2C[C@H](n3ncc(C(C)(C)O)n3)CC[C@H]2C)c1` [Example 52, 2-{2-[(3R,6R)-6-methyl-1-{[5-methyl-2-(2H-1,2,3-triazol-2-yl)phenyl]carbonyl}piperidin-3-yl]-2H-1,2,3-triazol-4-yl}propan-2-ol], for which the 50% inhibitory concentration (IC50) on human orexin-2 receptor was determined as 59.8 nM; in test [1] it was 3.09 µM.

`Cc1cccc(-n2nccn2)c1C(=O)N1C[C@H](n2ncc(C(C)(C)O)n2)CC[C@H]1C` [Example 53, 2-{2-[(3R,6R)-6-methyl-1-{[2-methyl-6-(2H-1,2,3-triazol-2-yl)phenyl]carbonyl}piperidin-3-yl]-2H-1,2,3-triazol-4-yl}propan-2-ol]: the IC50 came to 31.1 nM at human orexin-2 receptor and 1.81 µM in test [1].

Turning to `COc1ccc(C(=O)N2C[C@H](n3ncc(C(C)(C)O)n3)CC[C@H]2C)c(-n2nccn2)c1` [Example 54, 2-{2-[(3R,6R)-1-{[4-methoxy-2-(2H-1,2,3-triazol-2-yl)phenyl]carbonyl}-6-methylpiperidin-3-yl]-2H-1,2,3-triazol-4-yl}propan-2-ol], the values for the concentration for half-maximal inhibition (IC50) (at human orexin-2 receptor; in test [1]) were 53.3 nM and more than 10 µM, respectively.

Regarding `Cc1ccc(C(=O)N2C[C@H](n3ncc(C(C)(C)O)n3)CC[C@H]2C)c(-n2nccn2)n1` [Example 55, 2-{2-[(3R,6R)-6-methyl-1-{[6-methyl-2-(2H-1,2,3-triazol-2-yl)pyridin-3-yl]carbonyl}piperidin-3-yl]-2H-1,2,3-triazol-4-yl}propan-2-ol], the results for the concentration for half-maximal inhibition (IC50) (at human orexin-2 receptor; in test [1]) were 222 nM and more than 10 µM, respectively.

For the molecule `COCc1ccccc1C(=O)N1C[C@H](n2ncc(C(C)(C)O)n2)CC[C@H]1C` [Example 56, 2-{2-[(3R,6R)-1-{[2-(methoxymethyl)phenyl]carbonyl}-6-methylpiperidin-3-yl]-2H-1,2,3-triazol-4-yl}propan-2-ol], the figures for the IC50 (at human orexin-2 receptor; in test [1]) were 308 nM and more than 10 µM, respectively.

As for `C[C@@H]1CC[C@@H](n2ncc(C(C)(C)O)n2)CN1C(=O)c1cccc2ccnn12` [Example 57, 2-{2-[(3R,6R)-6-Methyl-1-(pyrazolo[1,5-a]pyridin-7-ylcarbonyl)piperidin-3-yl]-2H-1,2,3-triazol-4-yl}propan-2-ol], the half-maximal inhibitory concentration (IC50) was 489 nM at human orexin-2 receptor and more than 10 µM in test [1].
